Experimental data published in patent US20110319484A1, “NEUROPROTECTIVE COMPOUNDS” (Parque Tecnologico de Ciencias de la Salud, priority 2009, published 2011).

How the values were obtained:
[1] = system: human neuroblastoma SK-N-MC cells; test: Protection against neuronal death induced by apoptosis (camptothecin), WST-1 test; assay type: cell-based; settings: camptothecin 20 nM, 22 h, at 10 μg/ml, protection at 4, 10 and 40 μg/ml
Experimental: To that end, an assay was performed on human neuroblastoma SK-N-MC cells in culture from the ATCC (HTB-10); in all cases strict rules of sterility were followed and the manipulation was performed in class II biological safety cabinets following European standard EN 12469. The cells were maintained in MEM culture medium supplemented with 1 mM sodium pyruvate, 2 mM L-glutamine, 0.1 mM non-essential amino acids, 0.05 mg/ml gentamicin and 10% fetal bovine serum.
The inhibition caused by the compound (1S,3R,7S,8S,8aR)-1,2,3,7,8,8a-hexahydro-3,7-dimethyl-8-[2-[(2R,4R)-tetrahydro-4-hydroxy-6-oxo-2H-pyran-2-yl]ethyl-1-naphthalenyl 2-methylpropanoate (NST0004) of cell death caused by treatment with camptothecin (Campt), which inhibits the topoisomerase I enzyme by preventing duplication of the DNA, which triggers apoptic cell death, was analyzed. […]
The cells were incubated (at 37° C. and 5% CO2) with these treatments for 22 h, after which time the WST-1 reagent (Roche) was added. […] The metabolically active (live) cells reduce tetrazolium salt to formazan by means of the succinate-tetrazolium reductase system (of the mitochondrial respiratory chain) and the formazan which is formed can be detected colorimetrically since it has an absorbance of 440 nm. The reading was taken in a plate reader at 440 nm 2 hours after adding the reagent. […]

cerebral cortex of mice = test: Neuroprotection in the cerebral cortex (lateral entorhinal and amygdaloid nuclei) of mice after kainate; assay type: in vivo, mice (FVB/NHan); settings: KA 25 mg/kg i.p., NST0005 50 mg/kg i.p. daily
Experimental: All the animals included during the experimental process were 12-week old males of the FVB/NHan strain. The experiments were carried out strictly following the Guidance on the Operation of Animals (Scientific Procedures, Act. 1986). The animals had their respective quarantine period and were treated with maximum precaution to minimize possible contaminations for inoculations and handling.
Sixteen animals were used in this assay and the treatments were all carried out by intraperitoneal (i.p.) route with a volume of 100 μl, according to the following regimens: • i) PBS+PBS+PBS regimen: 4 animals were initially treated with PBS with a daily dose for 2 days, on the second day the animals were inoculated with a new dose of PBS and for the next 7 days with a daily dose of PBS. • ii) PBS+KA+PBS regimen: 6 animals were initially treated with PBS with a daily dose for 2 days, on the second day the animals were inoculated with a dose of kainate at 25 mg/kg and for the next 7 days with a daily dose of PBS. • iii) NST0005+KA+NST0005 regimen: 6 animals were initially treated with NST0005 with a daily dose of 50 mg/kg for 2 days, on the second day the animals were inoculated with a dose of kainate at 25 mg/kg and for the next 7 days with a daily dose of NST0005 at 50 mg/kg.
Once the treatment period of 7 days ended, the animals were sacrificed and the brains were dissected. […]

[2] = system: human neuroblastoma SK-N-MC cells; test: Protection against neuronal death induced by oxidative stress (XXO), WST-1 test; assay type: cell-based; settings: XXO 10 μM-60 mU/ml, 22 h, at 10 μg/ml, protection at 4, 10 and 20 μg/ml
Experimental: To perform this assay, the inhibition caused by the NST0005 compound [(1S,3R,7S,8S,8aR)-1,2,3,7,8,8a-hexahydro-3,7-dimethyl-8-[2-[(2R,4R)-tetrahydro-4-hydroxy-6-oxo-2H-pyran-2-yl]ethyl-1-naphthalenyl 2,2-dimethyl-propanoate] of cell death caused by the treatment with xanthine/xanthine oxidase (XXO) which, as has already been mentioned, generates oxidative damage (produces free radicals such as hydrogen peroxide, superoxide anion, hydroxyl radical) which triggers cell death, was analyzed. These cells [SK-N-MC], not exceeding 15 passages, were seeded on 96-well plates treated for adherent cells with a cell concentration of 5×10^4 cells/well; 3 wells of the plate were seeded for each condition of the assay.
After 24 h of cell incubation at 37° C. and 5% CO2, the cell treatments were performed with 100 μl of total volume for the following conditions: (i), control (culture medium); (ii), xanthine/xanthine oxidase (XXO) [10 μM-60 mU/ml]; and (iii), XXO [10 μM-60 mU/ml] and NST0005 at different concentrations [4, 10, 20 and 40 μg/ml].
The cells were incubated (at 37° C. and 5% CO2) with these treatments for 22 h, after which time the WST-1 reagent (Roche) was added. […] The formazan which is formed can be detected colorimetrically since it has an absorbance of 440 nm. The reading was taken in a plate reader at 440 nm 2 hours after adding the reagent. […]

SMILES | maximum reduction of the percentage of cell death relating to death caused by Camptothecin [1] | neuritic dystrophy in the cerebral cortex (MAP2) (cerebral cortex of mice) | reactive astrogliosis in the cerebral cortex (GFAP) (cerebral cortex of mice) | maximum reduction of the percentage of cell death relating to death caused by XXO [2]
CC(C)C(=O)O[C@H]1C[C@@H](C)C=C2C=C[C@H](C)[C@H](CC[C@@H]3C[C@@H](O)CC(=O)O3)[C@H]21 [NST0004] | 43% | – | – | –
C[C@H]1C=C2C=C[C@H](C)[C@H](CC[C@@H]3C[C@@H](O)CC(=O)O3)[C@H]2[C@@H](OC(=O)C(C)(C)C)C1 [NST0005] | – | significantly reduces neuronal damage by neuritic dystrophy | significantly prevents reactive astrogliosis | 50%
